Test [1] concerns the target T1, Na^+,K^+ -ATPase receptor (Homo sapiens, UniProt P05023).
T1 construct: Na^+,K^+ -ATPase receptor purified according to Jorghensen; from tissue
As to the kind of experiment: displacement of the specific ^3 H-ouabain binding from the Na^+,K^+ -ATPase receptor. The source says: (§1) To test the affinity for the receptor site of the Na^+,K^+ -ATPase and the agonist or inhibitory activity on the enzyme, the following tests were used: a) displacement of the specific ^3 H-ouabain binding from the Na^+,K^+ -ATPase receptor purified according to Jorghensen (Jorghensen P., BBA, 1974,356, 36) and Erdmann (Erdmann E. et al., Arzneim. Forsh., 1984, 34 (II), 1314); b) inhibition of the activity of the purified Na^+,K^+ -ATPase measured as % of hydrolysis of ^32 P-ATP in presence and in absence of the tested compound (Mall F. et al., Biochem. Pharmacol., 1984, 33, 47).
(§2) The affinity and the inhibitory activity of the aglycone digitoxigenin (DIGI), dihydrodigitoxigenin 20(S) (DIGI 20(S)) and dihydrodigitoxigenin 20(R) (DIGI 20(R)) and some basic 3β-derivatives on the two tests are shown in the following table: […]

The target of test [2] is T2, purified Na^+,K^+ -ATPase (Homo sapiens, UniProt P05023).
T2 construct: Na^+,K^+ -ATPase receptor purified according to Jorghensen; from tissue
As to the kind of experiment: inhibition of the activity of the purified Na^+,K^+ -ATPase (hydrolysis of ^32 P-ATP). It counts as biochemical.
Text: as §1, §2

Test [3] concerns spontaneous hypertensive rats (MHS). The test is described as follows: systolic blood pressure and heart rate in hypertensive MHS rats (indirect tail-cuff). The test is classed as in vivo, rat (MHS). Conditions: 20 mg/Kg/os daily for ten days in Methocel 0.5% w/v, 7 MHS rats; for SBP (systolic blood pressure): controls 171 +/- 4.5; for HR (heart rate): controls 384 +/- 11.0. The protocol: The ability of these compounds to lower blood pressure in adult hypertensive MHS rats was tested by the following method:
systolic blood pressure (SBP) and heart rate (HR) were measured by an indirect tail-cuff method in three-month old hypertensive MHS rats before beginning treatment (basal values). The rats were then subdivided in two groups of 7 animals each, one receiving the compound and the other, the control group, receiving only the vehicle. The compound, suspended in METHOCEL® 0.5% (w/v), for ten days, was administered daily by mouth. SBP and HR were measured daily 6 and 24 hours after the treatment. When ten-day treatment washout had been under way for at least two days, whether the treatment mantains SBP low or re-establish the basal values was verified. […]

Setting [4] is: ^3 H-ouabain displacement, purified Na^+,K^+ -ATPase, read-out: Binding ^3 H-Ouab. Displacement log IC50 (converted).
[5] abbreviates: % hydrolysis of ^32 P-ATP, purified Na^+,K^+ -ATPase, read-out: Inhibitory Activity log IC50 (converted).

SMILES strings stand for the structures. Counter-ions that a name gives are not always drawn. Like-named read-outs stand apart in the source and are kept apart here.

With `C[C@]12CC[C@H](OCCN3CCCC3)C[C@H]1CC[C@@H]1[C@@H]2CC[C@]2(C)[C@@H](C3=CC(=O)OC3)CC[C@]12O` [Comp. I-a, 3β-(2-(1-Pyrrolidinyl)ethoxy)-14β-hydroxy-5β-card-20(22)-enolide], the IC50 is 63.1 nM in test [1] and 251 nM in test [2].

As for `CN(C)CCCO[C@H]1CC[C@@]2(C)[C@H](CC[C@@H]3[C@@H]2CC[C@]2(C)[C@@H](C4=CC(=O)OC4)CC[C@]32O)C1` [Comp. I-b, 3β-(3-Dimethylaminopropoxy)-14β-hydroxy-5β-card-20(22)-enolide], the IC50 was 200 nM in test [1] and 5010 nM in test [2].

As for `C[C@]12CC[C@H](OCC[N+](C)(C)C)C[C@H]1CC[C@@H]1[C@@H]2CC[C@]2(C)[C@@H](C3=CC(=O)OC3)CC[C@]12O` [Comp. I-c, 3β-(2-(trimethylammonium)ethoxy)-14β-hydroxy-5β-card-20(22)-enolide chloride], the IC50 was 251 nM in test [1] and 501 nM in test [2]. Further, the “SBP (systolic blood pressure)” value in test [3] is listed as 152 +/- 5.0 mm Hg. Also, the “HR (heart rate)” value in test [3] is 375 +/- 9.0 beats/min.

With `C[C@]12CC[C@H](OCCCN)C[C@H]1CC[C@@H]1[C@@H]2CC[C@]2(C)[C@@H](C3=CC(=O)OC3)CC[C@]12O` [Comp. I-d, 3β-(3-Aminopropoxy)-14β-hydroxy-5β-card-20(22)-enolide oxalate], the concentration for half-maximal inhibition (IC50) was 126 nM in test [1] and 631 nM in test [2]. In addition, the “SBP (systolic blood pressure)” value in test [3] is 148 +/- 3.2 mm Hg. Moreover, in test [3], the “HR (heart rate)” value is on record as 388 +/- 12.0 beats/min.

Regarding `CN(C)CCOCCO[C@H]1CC[C@@]2(C)[C@H](CC[C@@H]3[C@@H]2CC[C@]2(C)[C@@H](C4=CC(=O)OC4)CC[C@]32O)C1` [Comp. I-e, 3β-(2-(2-dimethylaminoethoxy)ethoxy)-14β-hydroxy-5β-card-20(22)-enolide], the values for the IC50 in test [1] and in test [2] were 100 nM and 1000 nM, respectively. Besides, in test [3], the “SBP (systolic blood pressure)” value is reported as 149 +/- 4.8 mm Hg. Further, the “HR (heart rate)” value in test [3] is 395 +/- 10.0 beats/min.

In test [1], `C[C@]12CC[C@H](OCCC(=N)N)C[C@H]1CC[C@@H]1[C@@H]2CC[C@]2(C)[C@@H](C3=CC(=O)OC3)CC[C@]12O` [Comp. I-f, 3β-(2-Amidinoethoxy)-14β-hydroxy-5β-card-20(22)-enolide oxalate] gave an IC50 of 158 nM. The compound also had a half-maximal inhibitory concentration (IC50) in test [2] of 1580 nM. In addition, in test [3], the “SBP (systolic blood pressure)” value is 153 +/- 5.1 mm Hg and the “HR (heart rate)” value is 378 +/- 8.5 beats/min.

`C[C@]12CC[C@H](SCC3CO3)C[C@H]1CC[C@@H]1[C@@H]2CC[C@]2(C)[C@@H](C3=CC(=O)OC3)CC[C@]12O` (stereo partly drawn) [Comp. I-h, 3β-(2,3-Epoxy)propylthio-14β-hydroxy-5β-card-20(22)-enolide]: the half-inhibitory concentration (IC50) in test [1] was 63.1 nM. In test [2], this compound showed a half-inhibitory concentration (IC50) of 631 nM. For the same compound, in test [3], the “SBP (systolic blood pressure)” value is 157 +/- 6.0 mm Hg and the “HR (heart rate)” value is recorded as 382 +/- 6.8 beats/min.

Take `C[C@]12CC[C@H](SCCN)C[C@H]1CC[C@@H]1[C@@H]2CC[C@]2(C)[C@@H](C3=CC(=O)OC3)CC[C@]12O` [Comp. I-i, 3β-(2-Aminoethylthio)-14β-hydroxy-5β-card-20(22)-enolide oxalate]: the concentration for half-maximal inhibition (IC50) in test [1] is 100 nM; in test [2], 631 nM.

Regarding `C[C@]12CC[C@H](SCCN)C[C@H]1CC[C@@H]1[C@@H]2CC[C@]2(C)[C@@H]([C@H]3COC(=O)C3)CC[C@]12O` [Comp. I-j, 3β-(2-Aminoethylthio)-14β-hydroxy-5β-20(S) cardanolide oxalate], the IC50 in test [1] (setting [4]) was 316 nM; in test [2] (setting [5]), 3160 nM.

In test [1], `C[C@]12CC[C@H](SCCCN)C[C@H]1CC[C@@H]1[C@@H]2CC[C@]2(C)[C@@H](C3=CC(=O)OC3)CC[C@]12O` [Comp. I-k, 3β-(3-Aminopropylthio)-14β-hydroxy-5β-card-20(22)-enolide oxalate] showed an IC50 of 79.4 nM. Further, the IC50 in test [2] was 501 nM. For the same compound, in test [3], the “SBP (systolic blood pressure)” value is reported as 155 +/- 4.2 mm Hg and the “HR (heart rate)” value is reported as 385 +/- 11.0 beats/min.

Take `C[C@]12CC[C@H](SCCCN)C[C@H]1CC[C@@H]1[C@@H]2CC[C@]2(C)[C@@H]([C@H]3COC(=O)C3)CC[C@]12O` [Comp. I-l, 3β-(3-Aminopropylthio)-14β-hydroxy-5β-20(S)-cardanolide oxalate]: the IC50 in test [1] (setting [4]) was 251 nM. Further, the IC50 in test [2] (setting [5]) is 2000 nM. Also, in test [3], the “SBP (systolic blood pressure)” value was 147 +/- 4.8 mm Hg and the “HR (heart rate)” value is 390 +/- 10.0 beats/min.

For the compound `C[C@]12CC[C@H](SCCCN)C[C@H]1CC[C@@H]1[C@@H]2CC[C@]2(C)[C@@H]([C@@H]3COC(=O)C3)CC[C@]12O` [Comp. I-m, 3β-Aminopropylthio )-14β-hydroxy-5β-20(R)-cardanolide oxalate], the concentration for half-maximal inhibition (IC50) in test [1] (setting [4]) is 398 nM; in test [2] (setting [5]), 2510 nM.

On to `C[C@]12CC[C@H](SCCN3CCCC3)C[C@H]1CC[C@@H]1[C@@H]2CC[C@]2(C)[C@@H](C3=CC(=O)OC3)CC[C@]12O` [Comp. I-n, 3β-(2-(1-Pyrrolidinyl)ethylthio)-14β-hydroxy-5β-card-20(22)-enolide sesquioxalate], for which the IC50 in test [1] was 200 nM; in test [2], 398 nM.

Turning to `C[C@]12CC[C@H](SCC[N+](C)(C)C)C[C@H]1CC[C@@H]1[C@@H]2CC[C@]2(C)[C@@H](C3=CC(=O)OC3)CC[C@]12O` [Comp. I-p, 3β-(2-(Trimethylammonium)ethylthio)-14β-hydroxy-5β-card-20(22)-enolide chloride], the IC50 in test [1] is 100 nM. The same compound showed an IC50 in test [2] of 794 nM. Further, in test [3], the “SBP (systolic blood pressure)” value was 150 +/- 3.5 mm Hg and the “HR (heart rate)” value is 378 +/- 9.3 beats/min.

Turning to `C[C@]12CC[C@H](SCCCN3CCCC3)C[C@H]1CC[C@@H]1[C@@H]2CC[C@]2(C)[C@@H](C3=CC(=O)OC3)CC[C@]12O` [Comp. I-q, 3β-(3-(1-Pyrrolidinyl)propylthio)-14β-hydroxy-5β-card-20(22)-enolide oxalate], the figures for the concentration for half-maximal inhibition (IC50) in test [1] and in test [2] were 158 nM and 251 nM, respectively.

As to `C[C@]12CC[C@H](SCCCN3CCNCC3)C[C@H]1CC[C@@H]1[C@@H]2CC[C@]2(C)[C@@H](C3=CC(=O)OC3)CC[C@]12O` [Comp. I-r, 3β-(3-(1-Piperazinyl)propylthio)-14β-hydroxy-5β-card-20(22)-enolide], the IC50 in test [1] was 316 nM; in test [2] it was 631 nM.

In the case of `C[C@]12CC[C@H](SCC(O)CO)C[C@H]1CC[C@@H]1[C@@H]2CC[C@]2(C)[C@@H](C3=CC(=O)OC3)CC[C@]12O` (stereo partly drawn) [Comp. I-s, 3β-(2,3-Dihydroxypropylthio)-14β-hydroxy-5β-card-20(22)-enolide], the values for the IC50 in test [1] and in test [2] were 79.4 nM and 631 nM, respectively. The “SBP (systolic blood pressure)” value in test [3] is given as 149 +/- 4.1 mm Hg. The “HR (heart rate)” value in test [3] is 394 +/- 6.3 beats/min.

Compound `C[C@]12CC[C@H](SCC(O)CN)C[C@H]1CC[C@@H]1[C@@H]2CC[C@]2(C)[C@@H](C3=CC(=O)OC3)CC[C@]12O` (stereo partly drawn) [Comp. I-u, 3β-(3-Amino-2-hydroxypropylthio)-14β-hydroxy-5β-card-20(22)-enolide] gave an IC50 in test [1] of 50.1 nM. In addition, the IC50 in test [2] is 251 nM. Moreover, in test [3], the “SBP (systolic blood pressure)” value was 152 +/- 5.2 mm Hg and the “HR (heart rate)” value is 377 +/- 9.0 beats/min.

On to `C[C@]12CC[C@H](O)C[C@H]1CC[C@@H]1[C@@H]2CC[C@]2(C)[C@@H]([C@@H]3COC(=O)C3)CC[C@]12O` [DIGI 20(R), dihydrodigitoxigenin 20(R), reference compound], for which the values for the half-maximal inhibitory concentration (IC50) in test [1] and in test [2] were 2510 nM and 7940 nM, respectively.

Regarding `C[C@]12CC[C@H](O)C[C@H]1CC[C@@H]1[C@@H]2CC[C@]2(C)[C@@H]([C@H]3COC(=O)C3)CC[C@]12O` [DIGI 20(S), dihydrodigitoxigenin 20(S), reference compound], the IC50 in test [1] is 1580 nM; in test [2] it was 2510 nM.

In turn, `C[C@]12CC[C@H](O)C[C@H]1CC[C@@H]1[C@@H]2CC[C@]2(C)[C@@H](C3=CC(=O)OC3)CC[C@]12O` [DIGI, digitoxigenin] gave an IC50 in test [1] of 316 nM. Further, in test [2], the IC50 was 316 nM. Further, in test [3], the “SBP (systolic blood pressure)” value is reported as 173 +/- 4.0 mm Hg and the “HR (heart rate)” value is 380 +/- 10.0 beats/min.
